We go through eleven compounds from ChEMBL document CHEMBL4732221, “Design, synthesis and bioactivity evaluation of novel pyrazole linked phenylthiazole derivatives in context of antibacterial activity” (Bioorg Med Chem Lett, 2021).

Format in all cases: functional
The subject of assay [1] is Candida albicans. Kind of assay: Antifungal activity against Candida albicans ATCC 90028 assessed as growth inhibition at 32 ug/ml after 36 hrs by monochromator plate assay relative to control.
In assay [2] the test system is Klebsiella pneumoniae. Nature of the assay: Antibacterial activity against Klebsiella pneumoniae ATCC 700603 assessed as growth inhibition after 18 hrs by monochromator plate assay.
Assay [3] has as its system Cryptococcus neoformans. Kind of assay: Antifungal activity against Cryptococcus neoformans var. grubii ATCC 208821 assessed as growth inhibition at 32 ug/ml after 36 hrs by monochromator plate assay relative to control. The conditions noted are these: dose 32.0 µg/ml.
Assay [4] relates to Candida albicans. Nature of the assay: Antifungal activity against Candida albicans ATCC 90028 assessed as growth inhibition after 36 hrs by monochromator plate assay.
Assay [5] relates to Acinetobacter baumannii. Kind of assay: Antibacterial activity against Acinetobacter baumannii ATCC 19606 assessed as growth inhibition at 32 ug/ml after 18 hrs by monochromator plate assay relative to control. The conditions noted are these: for inhibition: dose 32.0 µg/ml.
The subject of assay [6] is Cryptococcus neoformans. Nature of the assay: Antifungal activity against Cryptococcus neoformans var. grubii ATCC 208821) assessed as growth inhibition after 36 hrs by monochromator plate assay relative to control.
Assay [7] concerns Staphylococcus aureus. Kind of assay: Antibacterial activity against methicillin-resistant Staphylococcus aureus ATCC 43300 assessed as growth inhibition at 32 ug/ml after 18 hrs by monochromator plate assay relative to control.
Assay [8] concerns Pseudomonas aeruginosa. Nature of the assay: Antibacterial activity against Pseudomonas aeruginosa ATCC 27853 assessed as growth inhibition after 18 hrs by monochromator plate assay.
Assay [9] concerns Acinetobacter baumannii. Kind of assay: Antibacterial activity against Acinetobacter baumannii ATCC 19606 assessed as growth inhibition after 18 hrs by monochromator plate assay.
Assay [10] concerns Klebsiella pneumoniae. Kind of assay: Antibacterial activity against Klebsiella pneumoniae ATCC 700603 assessed as growth inhibition at 32 ug/ml after 18 hrs by microplate reader assay relative to control. Conditions: for inhibition: dose 32.0 µg/ml.
Assay [11] deals with Escherichia coli. Nature of the assay: Antibacterial activity against Escherichia coli ATCC 25922 assessed as growth inhibition after 18 hrs by monochromator plate assay.
In assay [12] the test system is Escherichia coli. Nature of the assay: Antibacterial activity against Escherichia coli ATCC 25922 assessed as growth inhibition at 32 ug/ml after 18 hrs by monochromator plate assay relative to control. The conditions noted are these: for inhibition: dose 32.0 µg/ml.
The subject of assay [13] is Staphylococcus aureus. Kind of assay: Antibacterial activity against methicillin-resistant Staphylococcus aureus ATCC 43300 assessed as growth inhibition after 18 hrs by monochromator plate assay.
Assay [14] concerns Pseudomonas aeruginosa. Nature of the assay: Antibacterial activity against Pseudomonas aeruginosa ATCC 27853 assessed as growth inhibition at 32 ug/ml after 18 hrs by monochromator plate assay relative to control.

Converted amounts (≈) assume the structure as drawn. The source made the active and inactive calls. Where only a bound is given, the exact number is not on record here.

By inhibition is commonly meant the percentage by which the read-out fell short of the control. For orientation: MIC means the smallest concentration in the dilution series that meets the test's criterion for growth inhibition. For the compound `CCOC(=O)c1cc(-c2sc(-c3ccc(-c4ccccc4)cc3)nc2C)[nH]n1`, the inhibition at 32 µg/mL in assay [1] worked out at 5.6%; in assay [5] it was 2.8%; in assay [7], 13.6%; in [14] it was 1.5%. Moreover, the MIC entry in assay [2], in assay [6] and in assay [11] was “inactive” in each case. Also, the inhibition result in [3], in assay [10] and in assay [12] was “inactive” in each case. The MIC in assay [4], in [8], in assay [9] and in [13] was more than 32 µg/mL in each case.

`Cc1nc(-c2ccc(I)cc2)sc1-c1cc(C(=O)NC2CCCCC2)n[nH]1`: the inhibition at 32 µg/mL is 40.5% in [1], 12.9% in [7], 6.9% in [10] and 17.8% in [14]. Further, the MIC in assay [2], in assay [4], in assay [8] and in assay [13] was more than 32 µg/mL each time. Also, the inhibition entry in assay [3], in [5] and in assay [12] was “inactive” in each case. Also, the MIC result in [6], in assay [9] and in assay [11] was “inactive” throughout.

As to `Cc1nc(-c2ccc(-c3ccccc3)cc2)sc1-c1cc(C(=O)Nc2ccc(F)cc2)n[nH]1`, the inhibition at 32 µg/mL in [1] came to 19.6%; in [5], 3%; in assay [7], 15.1%; in assay [10], 4.4%; in assay [14], 5.1%. Besides, the MIC in [2], in assay [4], in [8], in [9] and in assay [13] was more than 32 µg/mL in each case. Moreover, the inhibition entry in assay [3] and in assay [12] was “inactive” each time. For the same compound, the MIC entry in assay [6] and in assay [11] was “inactive” throughout.

Take `Cc1cccc(-c2ccc(-c3nc(C)c(-c4cc(C(=O)NC5CCCCC5)n[nH]4)s3)cc2)c1C`: the inhibition at 32 µg/mL in assay [1] was found to be 6.1%; in assay [7], 7.2%; in assay [14], 7.1%. The MIC result in [2], in assay [6], in [9] and in assay [11] was “inactive” each time. Also, the inhibition result in assay [3], in assay [5], in [10] and in [12] was “inactive” each time. The MIC was more than 32 µg/mL in [4], more than 32 µg/mL in [8] and 32 µg/mL (≈ 68 µM) in assay [13].

For the compound `Cc1nc(-c2ccc(-c3cccc4ccccc34)cc2)sc1-c1cc(C(=O)NC2CCCCC2)n[nH]1`, the inhibition at 32 µg/mL was found to be 40.8% in assay [1], 19.4% in assay [7] and 6.1% in [14]. Also, the MIC entry in assay [2], in [6], in [9] and in [11] was “inactive” each time. For the same compound, the inhibition entry in [3], in [5], in assay [10] and in assay [12] was “inactive” in each case. Further, the MIC in assay [4], in assay [8] and in assay [13] was more than 32 µg/mL each time.

As to `Cc1nc(-c2ccc(-c3cccc4c3OCO4)cc2)sc1-c1cc(C(=O)NC2CCCCC2)n[nH]1`, the values for the inhibition at 32 µg/mL in assay [1], in assay [7] and in assay [14] were 0.9%, 41.2% and 6.2%, respectively. Moreover, the MIC result in [2], in assay [6], in assay [9] and in assay [11] was “inactive” each time. Moreover, the inhibition entry in assay [3], in [5], in [10] and in [12] was “inactive” in each case. Besides, the MIC in assay [4], in [8] and in [13] was more than 32 µg/mL in each case.

For the compound `Cc1nc(-c2ccc(I)cc2)sc1-c1cc(C(=O)O)n[nH]1`, the inhibition at 32 µg/mL in assay [1] is 25.5%; in [5], 6.6%; in assay [7], 31.8%; in [10], 12%; in assay [12] it was 27.5%. For the same compound, the MIC in assay [2], in assay [4], in [9], in assay [11] and in assay [13] was more than 32 µg/mL each time. The inhibition entry in assay [3] and in [14] (dose 32.0 µg/ml) was “inactive” in each case. Further, the MIC result in assay [6] and in [8] was “inactive” each time.

In the case of `Cc1nc(-c2ccc(I)cc2)sc1-c1cc(C(=O)Nc2ccccc2)n[nH]1`, the inhibition at 32 µg/mL turned out to be 4.6% in assay [1], 19% in [7], 4.7% in assay [10] and 11.1% in assay [14]. The MIC in assay [2], in assay [4], in [8] and in [13] was more than 32 µg/mL throughout. In addition, the inhibition entry in [3], in assay [5] and in assay [12] was “inactive” in each case. Also, the MIC result in assay [6], in assay [9] and in assay [11] was “inactive” in each case.

On to `Cc1nc(-c2ccc(-c3ccccc3)cc2)sc1-c1cc(C(=O)Nc2ccc3c(c2)OCO3)n[nH]1`, for which the inhibition at 32 µg/mL in assay [1] amounted to 5%; in assay [7], 3.2%; in [10], 7.5%; in [14], 1.3%. For the same compound, the MIC in [2], in assay [4], in assay [8] and in assay [13] was more than 32 µg/mL in each case. Also, the inhibition entry in [3], in assay [5] and in [12] was “inactive” throughout. The MIC result in [6], in [9] and in [11] was “inactive” throughout.

As for `OC(Cn1cncn1)(Cn1cncn1)c1ccc(F)cc1F` [FLUCONAZOLE], the inhibition entry in [1] (dose 32.0 µg/ml) and in assay [3] was “inactive” each time. Moreover, the values for the MIC in assay [4] and in [6] were 0.125 µg/mL (≈ 0.408 µM) and 8 µg/mL (≈ 26.1 µM), respectively.

As to `CN[C@H](CC(C)C)C(=O)N[C@H]1C(=O)N[C@@H](CC(N)=O)C(=O)N[C@H]2C(=O)N[C@H]3C(=O)N[C@H](C(=O)N[C@H](C(=O)O)c4cc(O)cc(O)c4-c4cc3ccc4O)[C@H](O)c3ccc(c(Cl)c3)Oc3cc2cc(c3O[C@@H]2O[C@H](CO)[C@@H](O)[C@H](O)[C@H]2O[C@H]2C[C@](C)(N)[C@H](O)[C@H](C)O2)Oc2ccc(cc2Cl)[C@H]1O`, the inhibition entry in assay [7] (dose 32.0 µg/ml) was “inactive”.
